Source: patent publication US7605179B2, “Napthoquinone derivatives as inhibitors of tau aggregation for the treatment of alzheimer's and related neurodegenerative disorders” (Wista Laboratories Ltd., priority 2001, dated 2009)

What was measured:
cultured CNS neurones = conditions: cited from earlier work
tau-tau aggregation = target: T1, tau-tau aggregation (Homo sapiens, UniProt P10636); assay: Cell-based assay II ('ssK40/25 kD'), proteolytic processing of tau; conditions: concentrations of 1-2 μM
T1 construct: membrane-targeted tau (sstau190-441, “ssK40”); expressed in transfected cells
Description: The process is described in more detail in prior filed unpublished application GB 0100119.7. […] These cleavage sites correspond to the known boundaries of the PHF-core domain, indicate that their generation within the cell depends on PHF-like tau aggregation through an antiparallel phase-shifted alignment of the repeat domain.
This is shown schematically in FIG. 7. When expression of full-length tau (T40) is activated under control of an inducible promoter in cells which constitutively express the membrane-targeted ssK40 fragment, T40 is processed proteolytically to give rise to a K40 fragment (N-terminal truncation at ˜αα 185), a K30 fragment (C-terminal truncation ˜αα 390) and a K25 fragment (N-terminal truncation at ˜αα 295).

tau-tau binding [1] = target: tau-tau binding (Homo sapiens, UniProt P10636); assay: Cell-based assay I ('T40/12 kD'), production of the 12 kD fragment; conditions: for Ki: apparent KI calculated from T40/12 kD cell data, assumes intracellular tau 500 nM, tau-tau Kd 22 nM; for IC50: concentration at which production of the 12 kD band from full-length tau is reduced to 50%, read-out: B50; for activity as inhibitor of tau-tau aggregation: T40/12 kD cell assay
Procedure: Production of the 12 kD fragment can be blocked in a dose-dependent manner by tau-aggregation inhibitors. Indeed the quantitation of inhibitory activity of compounds with respect to proteolytic generation of the 12 kD fragment within cells can be described entirely in terms of the same parameters which describe inhibition of tau-tau binding in vitro. That is, extent of proteolytic generation of the 12 kD fragment within cells is determined entirely by the extent to tau-tau binding through the repeat domain. The availability of the relevant proteases within the cell is non-limiting.
The process is described in more detail in prior filed unpublished application GB 0101049.5.
The observed cell data for production of the 12 kD band can be fitted closely (i.e. observed vs. predicted correlation coefficient >0.9), to a standard function describing inhibition of tau-tau binding in vitro. To obtain this fit, two assumptions need to be made, which are consistent with results from other cell-based and in vitro studies: • 1) the intracellular concentration of tau is approximately 500 nM; • 2) the tau-tau binding affinity is 22 nM.
When these assumptions are made, the function: Activity=[tau]([tau]+Kd*(1+[inhibitor]/KI)) can be solved by standard numerical methods to derive a value for apparent KI. Comparison with values observed for tau-tau binding in vitro at a tau concentration of 500 nM, where the Kd value for tau-tau binding is known to be 22 nM confirm that the sole determinant of production of the proteolytically stable core tau unit of the PHF within the cell is simply the extent of tau-tau binding.
A further parameter, B50, has been established in respect of compounds exemplified herein. The B50 value is the determined concentration of test compound used in the cell assay at which relative production of the 12 kD band from full-length tau was reduced to 50% of that observed in the absence of the compound. This provides an indication of the tissue concentration which would be required to achieve the corresponding activity in vivo. In general there is an approximately linear relationship between apparent KI value and B50 value, which can be used to derive the KI value: B50(μM)=0.0217×KI(nM) Cell-based Assay II(‘ssK40/25 kD’)

tau protein = conditions: 200 μM; cited from earlier work
fibroblast cells (3T6) = assay: Toxicity in the T40/12 kD cell assay (lactate dehydrogenase kit); format: cell-based; conditions: for LD50: cellular LD50, cell numbers after 24 hrs exposure; for Rxindx: therapeutic index, RxIndx=LD50/B50
Procedure: Toxicity of the compounds described above was assessed in the T40/12 kD cell assay used to assess activity. Toxicity was measured by cell numbers after 24 hrs exposure to the compound using a lactate dehydrogenase assay kit TOX-7(Sigma Biosciences) according to the manufacturer's instructions after lysis of remaining cells. Alternatively a kit from Promega UK (CytoTox 96) was used, again according to the manufacturer's instructions.

tau-tau binding [2] = assay: In vitro tau-tau binding assay (WO 96/30766)
Procedure: FIG. 5 is a schematic representation of the in vitro aggregation assay of WO 96/30766 in which binding of two truncated units is measured. The species terminating at […] (“a”) is first coated on the ELISA plate (in sodium carbonate buffer: 50 mM, pH 9.6). Next, a second truncated tau species terminating at […] (“e”) is incubated in various buffer conditions. […] This is described in detail in WO 96/30766. Briefly, a fragment of tau corresponding to the core repeat domain, which has been adsorbed to a solid phase substrate, is able to capture soluble full-length tau and bind tau with high affinity. This association confers stability against proteolytic digestion of the aggregated tau molecules. The process is self-propagating, and can be blocked selectively by prototype pharmaceutical agents ([…]., et al. (1996), loc. cit). The assay is shown schematically in FIG. 5.

tau-tau binding [3] = conditions: WO 96/30766 FIGS. 23 and 24; 1 represents binding equivalent to that in the absence of compound; cited from earlier work
tau-tubulin binding = tau-tubulin binding (Homo sapiens, UniProt P10636); assay: In vitro tau-tubulin binding; conditions: at concentrations up to 500 μM (2500:1 molar ratio with respect to tau)
tau-tubulin binding, sequence (P10636 whole entry): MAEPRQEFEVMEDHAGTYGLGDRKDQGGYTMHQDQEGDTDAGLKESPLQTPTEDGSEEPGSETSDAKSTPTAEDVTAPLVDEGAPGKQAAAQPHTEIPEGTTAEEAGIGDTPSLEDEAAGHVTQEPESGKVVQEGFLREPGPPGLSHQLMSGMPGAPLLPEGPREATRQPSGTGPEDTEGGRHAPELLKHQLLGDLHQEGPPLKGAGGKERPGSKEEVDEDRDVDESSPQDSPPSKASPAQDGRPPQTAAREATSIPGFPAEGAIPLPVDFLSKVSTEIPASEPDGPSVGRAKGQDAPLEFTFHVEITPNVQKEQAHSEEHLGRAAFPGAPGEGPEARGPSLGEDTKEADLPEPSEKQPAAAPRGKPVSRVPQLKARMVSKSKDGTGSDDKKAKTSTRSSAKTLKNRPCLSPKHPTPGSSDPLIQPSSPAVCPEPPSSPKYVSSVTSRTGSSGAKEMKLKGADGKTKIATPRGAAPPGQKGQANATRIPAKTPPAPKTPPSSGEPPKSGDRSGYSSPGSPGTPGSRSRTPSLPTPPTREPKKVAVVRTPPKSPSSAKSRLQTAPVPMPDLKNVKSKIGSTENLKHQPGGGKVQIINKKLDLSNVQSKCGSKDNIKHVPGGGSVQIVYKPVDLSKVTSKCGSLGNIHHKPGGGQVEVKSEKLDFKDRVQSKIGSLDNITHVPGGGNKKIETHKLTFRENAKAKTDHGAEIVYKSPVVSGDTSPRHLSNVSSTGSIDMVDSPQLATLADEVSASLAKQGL

tau-tau binding (Homo sapiens, UniProt P10636), sequence (P10636 1-441 isoform P10636-8): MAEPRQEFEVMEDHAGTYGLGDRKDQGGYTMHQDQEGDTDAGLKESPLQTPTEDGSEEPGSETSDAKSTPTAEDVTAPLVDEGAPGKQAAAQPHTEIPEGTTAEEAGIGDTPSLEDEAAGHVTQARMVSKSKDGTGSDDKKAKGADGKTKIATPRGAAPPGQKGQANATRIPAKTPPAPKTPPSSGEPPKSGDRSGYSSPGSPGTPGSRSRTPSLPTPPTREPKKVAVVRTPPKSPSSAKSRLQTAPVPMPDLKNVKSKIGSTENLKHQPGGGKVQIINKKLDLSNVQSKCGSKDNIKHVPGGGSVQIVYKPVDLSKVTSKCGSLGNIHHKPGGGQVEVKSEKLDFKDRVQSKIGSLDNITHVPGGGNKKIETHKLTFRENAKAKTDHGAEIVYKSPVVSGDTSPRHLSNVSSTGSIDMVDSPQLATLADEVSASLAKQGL
T1 sequence (P10636 507-758): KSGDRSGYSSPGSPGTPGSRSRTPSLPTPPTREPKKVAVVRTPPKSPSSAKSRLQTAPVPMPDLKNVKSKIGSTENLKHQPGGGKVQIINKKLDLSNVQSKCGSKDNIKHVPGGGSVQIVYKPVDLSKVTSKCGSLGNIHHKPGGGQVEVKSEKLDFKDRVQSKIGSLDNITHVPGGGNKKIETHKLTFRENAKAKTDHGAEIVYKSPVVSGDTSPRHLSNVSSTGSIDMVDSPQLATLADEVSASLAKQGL

## CC1=C(C/C=C(\C)CCC[C@H](C)CCC[C@H](C)CCCC(C)C)C(=O)c2ccccc2C1=O [Compound K1, 2-methyl-3-phytyl-1,4-naphthoquinone]
Cultured CNS neurones; in the range 10 nM—1 μM
  survival promoting effects: prominent survival promoting effects

## CC1=CC(=O)c2ccccc2C1=O [Compound K3, 2-methyl-1,4-naphthoquinone]
tau-tau aggregation
  conversion K40→K25 relative to that seen without K3: about ½
  conversion of T40→K25 relative to that seen without K3: about ¼
tau-tau aggregation; inferred
  conversion of T40→K40 relative to that seen without K3: about ½
Cultured CNS neurones; only at 1 μM
  survival promoting activity relative to vitamins K1 and K2: ~10%
tau-tau binding [1]
  Ki: 0.128 µM
  IC50: 2.78 µM
Tau protein
  effect on tau protein phosphorylation: prominent dephosphorylation of tau protein
Fibroblast cells (3T6)
  LD50: 44.92 µM
  Rxindx: 16.17
tau-tau binding [2]
  activity in the in vitro assay: did not show activity
tau-tau binding [3]
  ranking value of inhibitory properties: 1.042

## CC(C)=CCC1=C(O)C(=O)c2ccccc2C1=O [DH1]
tau-tau binding [1]
  activity as inhibitor of tau-tau aggregation: weak activity
  Ki: 0.513 µM
  IC50: 11.1 µM
Fibroblast cells (3T6)
  LD50: 100.97 µM
  Rxindx: 9.07

## O=C(O)c1cc(O)c2ccccc2c1O [DH5]
tau-tau binding [1]
  activity as inhibitor of tau-tau aggregation: had activity
  Ki: 0.118 µM
  IC50: 2.56 µM
Fibroblast cells (3T6)
  LD50: 34.29 µM
  Rxindx: 13.39

## CC(=O)Oc1cc(C)c(OC(C)=O)c2ccccc12 [DH9]
tau-tau binding [1]
  activity as inhibitor of tau-tau aggregation: highly active
  Ki: 0.127 µM
  IC50: 2.76 µM
Fibroblast cells (3T6)
  LD50: 13.09 µM
  Rxindx: 4.75

## CC1=C(C)C(=O)c2ccccc2C1=O [DH10, 2,3-dimethyl-1,4-naphthoquinone]
tau-tau binding [1]
  Ki: 0.221 µM
  IC50: 4.8 µM
Fibroblast cells (3T6)
  LD50: 66.71 µM
  Rxindx: 13.91

## CC(=O)Oc1c(C)c(C)c(OC(C)=O)c2ccccc12 [DH11]
tau-tau binding [1]
  activity as inhibitor of tau-tau aggregation: reduced activity
  Ki: 0.674 µM
  IC50: 14.6 µM
Fibroblast cells (3T6)
  LD50: 12.13 µM
  Rxindx: 0.83

## Cc1cc(OS(=O)(=O)O)c2ccccc2c1OS(=O)(=O)O [DH13]
tau-tau binding [1]
  activity as inhibitor of tau-tau aggregation: intermediate in activity
  Ki: 0.263 µM
  IC50: 5.71 µM
Fibroblast cells (3T6)
  LD50: 30.90 µM
  Rxindx: 5.41

## menaquinone [Compound K2]
tau-tau binding [2]; for values less than 100 μM, read-out: apparent KI value in vitro
  Ki: 0.942 µM
tau-tubulin binding
  inhibition of tau-tubulin binding in vitro: does not inhibit
tau-tau binding [3]
  ranking value of inhibitory properties: 0.674
